{"source": "patent US20110053951A1", "about": "“METHODS FOR TREATING DISORDERS USING NMDA NR2B-SUBTYPE SELECTIVE ANTAGONIST” (EVOTEC NEUROSCIENCES GMBH, priority 2008, published 2011)", "key": {"[1]": {"tested_on": "healthy young and elderly subjects", "assay": "Double-blind, placebo-controlled, single and multiple oral dose safety and tolerability study", "type": "in vivo, human", "procedure": "A double-blind, placebo-controlled, randomized, single, and multiple oral dose study was conducted in order to determine safety and tolerability of the bis HCl salt of compound of formula (I) in healthy young and elderly subjects. The study was conducted in two parts.\nPart 1 comprised an ascending single dose, sequential group study in 48 young male subjects, incorporating a two-period crossover arm to investigate the effect of food. Part 2 comprised an ascending multiple dose, sequential group study in 24 young male subjects and an ascending single and multiple dose, sequential group study in 18 elderly subjects (10 males and 8 females) subjects. On each dosing occasion, the subjects received a single capsule containing the appropriate amount of either the bis HCl salt of compound of formula (I) or microcrystalline cellulose. Treatments were administered orally with 240 ml water while the subjects were in a standing position.\nThe condition of each subject was monitored throughout the study. In addition, any signs and symptoms were observed and elicited at least once a day by open questioning, such as “How have you been feeling since you were last asked?” Subjects were also encouraged to report spontaneously any adverse events during the study.\nAny adverse events or remedial actions were recorded. The nature, time of onset, duration, and severity were documented. Any clinically significant abnormalities found during the course of the study were followed up until they returned to normal or could be clinically explained.\nA serious adverse event is defined as any untoward medical occurrence that at any dose either results in death, is life-threatening, requires inpatient hospitalization, or prolongs existing hospitalization, results in persistent or significant disability/incapacity, and/or results in a congenital anomaly/birth defect.\nImportant medical events that may not result in death, be life-threatening, or require hospitalization may be considered to be serious adverse events when, based upon appropriate medical judgment, they may jeopardize the subject or may require medical or surgical intervention to prevent one of the above-described outcomes."}, "healthy volunteers [2]": {"tested_on": "healthy volunteers", "assay": "fMRI (BOLD) during Paired Associates Learning (PAL) task", "type": "in vivo, human", "procedure": "(§1) A double blind, placebo controlled study was conducted in 19 healthy volunteers to investigate the role of NMDA receptor NR2B subunit selective antagonism on cognitive functions and neurophysiology as measured with magnetic resonance imaging (MRI). This study utilized functional MRI to determine changes in regional cerebral blood flow (rCBF) and the putative modulation of neural networks during performance of cognitive tasks by the subjects after they were administered the bis HCl salt of compound of formula (I).\nThe 19 healthy male volunteers who participated in this study were scanned using functional magnetic resonance imaging (fMRI) whilst performing cognitive tasks (including the PAL task described below in more detail) designed to measure associative learning, sustained attention, and episodic memory. These tasks were repeated on three study days two hours prior to the fMRI session. […]\nImage preprocessing and analysis were carried out using Statistical Parametric Mapping software developed by the Functional Imaging Laboratory, UCL, (SPM v5.0, www.fillon.ucl.ac.ulc/spm/)., running under Matlab 7.0.1, and a blood oxygen level dependency (BOLD) was determined. […]"}, "healthy volunteers [3]": {"tested_on": "healthy volunteers", "assay": "Continuous arterial spin labeling (CASL) perfusion MRI of regional cerebral blood flow (rCBF)", "type": "in vivo, human", "conditions": "for increase in rCBF: anterior cingulate cluster", "procedure": "as §1\nThe 19 healthy male volunteers who participated in this study were scanned using functional magnetic resonance imaging (fMRI) whilst performing cognitive tasks (including the PAL task described below in more detail) designed to measure associative learning, sustained attention, and episodic memory. These tasks were repeated on three study days two hours prior to the fMRI session. On these three separate occasions, the participants received a capsule containing either placebo (microcrystalline cellulose), 8 mg, or 15 mg of the bis HCl salt of compound of formula (I) such that all treatments were given to all participants. During the fMRI session, the tasks were presented in a randomized order to each subject; however, the order assigned was then maintained across all three study sessions. Additional practice on the tasks was offered to the participants before entering the scanner, and the instructions were repeated prior to each task being performed whilst in the scanner.\nImages were acquired on a 1.5T GE Excite HDx system (General Electric, Milwaukee, Wis.). For all tasks a gradient-echo EPI sequence was used with TE=40 ms, FOV=24 cm, and in-plane resolution of 3.75 mm^2 (matrix=64^2). Thirty-eight axial slices with thickness 3 mm (0.3 mm gap) approximately parallel to the AC/PC line were obtained. For the paired associates learning task TR=3000 ms. In addition, a high-resolution image was acquired using single shot EPI with TR=3000 ms, TE=40 ms, FOV=24 cm, 3 mm slice thickness with 0.3 mm gap, matrix=128^2, and 43 slices. This image was used to determine coregistration parameters.\nWhole-brain resting perfusion images were acquired with a continuous arterial spin labeling (CASL) sequence consisting of a pseudo-continuous flow-driven, adiabatic inversion scheme and a continuous 3D fast spin echo (FSE) sequence with an interleaved stack of variable density spirals acquisition (Alsop and Detre (1998) Multisection cerebral blood flow MR imaging with continuous arterial spin labeling. Radiology 208: 410-6). CASL perfusion images are able to delineate grey and white matter and provide high resolution quantification of rCBF across the whole brain. Because of the genuine 3-dimensional encoding and readout of this multi-shot technique, and the refocusing of magnetic susceptibility induced signal distortions, the maps of whole brain rCBF obtainable with this technique are of good image quality and exquisite spatial resolution.\nFor the perfusion images, brain volumes were first normalized into a standard anatomical space (International Consortium on Brain Mapping—ICBM), using affine registration and non-linear transformations. Normalization utilized a single image to which all three CASL sessions were coregistered in order to reduce the likelihood of preprocessing-dependent differences between the drug and placebo session images. All images were spatially smoothed using a Gaussian kernel full-width at half-maximum filter of 6×6×6 mm to improve signal-to-noise ratio and allow for inherent functional and gyral variability across participants.\nImage preprocessing and analysis were carried out using Statistical Parametric Mapping software developed by the Functional Imaging Laboratory, UCL, (SPM v5.0, www.fillon.ucl.ac.ulc/spm/)., running under Matlab 7.0.1, and a blood oxygen level dependency (BOLD) was determined. BOLD changes to cognitive tasks represent changes of neuronal activities of respective brain areas."}, "[4]": {"assay": "Cerebrospinal fluid (CSF) penetration by lumbar puncture, LC-MS-MS", "type": "in vivo, human", "conditions": "8 mg daily for 8 days, six healthy subjects, 3 to 4 hours after dosing on day 8", "procedure": "One lumbar puncture per subject was performed on day 8 of treatment (daily dose of 8 mg of bis HCl salt of the compound of formula (I)), in the timeframe of 3 to 4 hours after dosing.\nAll care was taken to avoid contamination of the collected CSF sample with blood. Thus, only clear CSF was collected, after blood-contaminated liquid has left the cannula. Bloody taps were discarded.\nSamples were aliquoted per time point for the measurement of compound of formula (I) as follows: a 0.5 ml CSF sample was aliquoted in empty dry polypropylene tubes from the ≈5 ml CSF collected at each scheduled time point.\nCSF samples were stored immediately in an upright position at a temperature of −70° C. or below until shipment. Compound of formula (I) concentrations were measured by a specific and validated LC-MS-MS method. Cerebrospinal fluid (CSF) penetration has been assessed in six healthy subjects receiving 8 mg of bis HCl salt of compound of formula (I) daily for 8 days. […] Such concentrations in the CSF have been extrapolated to estimate the extent of occupancy of the NR2B subtype of the NMDA receptor. […] The selectivity of the compound of formula (I) and salts thereof in combination with the good penetration of the blood brain barrier at well-tolerated dosages according to the present invention provides a therapeutic advantage."}, "[5]": {"target": "NR2B subtype of the NMDA receptor (Homo sapiens, UniProt Q05586+Q13224)", "sequence (Q13224 27-1484, other chains not shown)": "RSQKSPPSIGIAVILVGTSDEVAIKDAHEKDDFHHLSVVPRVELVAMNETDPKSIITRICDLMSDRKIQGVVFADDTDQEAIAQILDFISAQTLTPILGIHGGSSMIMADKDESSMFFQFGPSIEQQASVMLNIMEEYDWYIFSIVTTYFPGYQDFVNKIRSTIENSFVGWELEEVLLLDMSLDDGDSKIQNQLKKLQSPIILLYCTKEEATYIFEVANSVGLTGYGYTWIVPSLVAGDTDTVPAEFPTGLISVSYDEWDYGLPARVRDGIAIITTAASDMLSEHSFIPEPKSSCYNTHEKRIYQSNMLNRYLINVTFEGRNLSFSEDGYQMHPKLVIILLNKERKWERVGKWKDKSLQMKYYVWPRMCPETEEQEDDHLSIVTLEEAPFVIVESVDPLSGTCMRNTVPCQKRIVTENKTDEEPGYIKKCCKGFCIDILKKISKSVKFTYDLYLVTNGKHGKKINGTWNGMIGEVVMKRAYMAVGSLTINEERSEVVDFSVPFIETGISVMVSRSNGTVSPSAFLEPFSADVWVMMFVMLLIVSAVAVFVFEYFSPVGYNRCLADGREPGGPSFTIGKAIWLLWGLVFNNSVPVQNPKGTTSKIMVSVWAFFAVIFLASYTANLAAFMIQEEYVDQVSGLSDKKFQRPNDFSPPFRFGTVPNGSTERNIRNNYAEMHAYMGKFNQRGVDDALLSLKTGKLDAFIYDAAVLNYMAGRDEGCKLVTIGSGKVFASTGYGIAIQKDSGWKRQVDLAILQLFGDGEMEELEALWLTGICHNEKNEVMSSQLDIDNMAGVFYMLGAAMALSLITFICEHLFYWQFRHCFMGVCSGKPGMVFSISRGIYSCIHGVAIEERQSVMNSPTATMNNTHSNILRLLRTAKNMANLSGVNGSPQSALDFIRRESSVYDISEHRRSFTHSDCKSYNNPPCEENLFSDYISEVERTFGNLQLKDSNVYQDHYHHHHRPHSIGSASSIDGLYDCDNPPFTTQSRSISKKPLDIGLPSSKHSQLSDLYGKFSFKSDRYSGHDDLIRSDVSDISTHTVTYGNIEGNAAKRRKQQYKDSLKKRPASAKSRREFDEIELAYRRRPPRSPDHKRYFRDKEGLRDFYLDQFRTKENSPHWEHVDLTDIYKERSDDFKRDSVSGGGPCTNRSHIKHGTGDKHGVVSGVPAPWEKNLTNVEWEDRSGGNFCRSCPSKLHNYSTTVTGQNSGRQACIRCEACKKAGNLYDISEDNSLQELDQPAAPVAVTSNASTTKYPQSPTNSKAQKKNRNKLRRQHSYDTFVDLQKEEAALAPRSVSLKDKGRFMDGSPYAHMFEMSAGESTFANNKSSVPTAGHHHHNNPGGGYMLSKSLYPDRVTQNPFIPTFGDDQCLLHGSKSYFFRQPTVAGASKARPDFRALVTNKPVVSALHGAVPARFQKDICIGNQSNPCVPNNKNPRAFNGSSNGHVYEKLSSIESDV", "assay": "Receptor occupancy estimated by extrapolation from CSF concentrations", "type": "in vivo", "conditions": "daily dose of 8 mg; extrapolated from CSF concentrations; compared with therapeutic dosages of memantine", "procedure": "CSF samples were stored immediately in an upright position at a temperature of −70° C. or below until shipment. Compound of formula (I) concentrations were measured by a specific and validated LC-MS-MS method. […] Such concentrations in the CSF have been extrapolated to estimate the extent of occupancy of the NR2B subtype of the NMDA receptor."}, "[6]": {"conditions": "throughout the study, young and elderly subjects"}}, "note": "Structures can show the parent of a compound that is named as a salt.", "data": [{"smiles": "Cc1nccn1Cc1cc(-c2ccc(F)c(C(F)F)c2)cnn1", "note": "[bis HCl salt of compound of formula (I), 5-(3-difluoromethyl-4-fluoro-phenyl)-3-(2-methyl-imidazol-1-yl-methyl)-pyridazine]", "values": [{"measurement": "tolerability", "setting": "[1]; elderly males and females, multiple oral doses (over 8 days) of up to 3 mg twice daily", "result": "very well tolerated"}, {"measurement": "tolerability", "setting": "[1]; elderly males and females, single oral doses of up to 4 mg", "result": "very well tolerated"}, {"measurement": "vital signs and electrocardiogram (ECG) parameters", "setting": "[1]; following single or multiple dosing in young or elderly subjects", "result": "no apparent trends"}, {"measurement": "incidence of adverse events", "setting": "[1]; [6]", "result": "low incidence of mainly mild adverse events"}, {"measurement": "serious or severe adverse events", "setting": "[1]; [6]", "result": "no serious or severe adverse events"}, {"measurement": "tolerability", "setting": "[1]; young males, multiple oral doses (over 8 days) of up to 8 mg once daily", "result": "very well tolerated"}, {"measurement": "tolerability", "setting": "[1]; young males, single oral doses of up to 15 mg (including 2, 5 and 10 mg)", "result": "very well tolerated"}, {"measurement": "functional performance of subjects in PAL", "setting": "healthy volunteers [2]; 8 mg and 15 mg oral, healthy young subjects", "result": "unaffected"}, {"measurement": "BOLD signal during retrieval in memory retrieval network", "setting": "healthy volunteers [2]; placebo, 8 mg, 15 mg oral, PAL task, preliminary analysis", "result": "dose dependent increases in BOLD signal"}, {"measurement": "decreases in rCBF", "setting": "healthy volunteers [3]; 8 mg and 15 mg oral", "result": "no clusters of voxels showing significant decreases in rCBF"}, {"measurement": "areas of increased/decreased perfusion", "setting": "healthy volunteers [3]; 8 mg oral vs placebo", "result": "No statistically significant changes"}, {"measurement": "increase in rCBF", "setting": "healthy volunteers [3]; 8 mg oral", "result": 17.5, "unit": "%"}, {"measurement": "rCBF, direct comparison with placebo", "setting": "healthy volunteers [3]; 15 mg oral, anterior cingulate", "result": "highly significant cluster of increased rCBF"}, {"measurement": "increase in rCBF", "setting": "healthy volunteers [3]; 15 mg oral", "result": 17.9, "unit": "%"}, {"measurement": "rCBF normalized to global signal, main effect of drug", "setting": "healthy volunteers [3]; averaged over 8 mg and 15 mg vs placebo, genu of the anterior cingulate cortex", "result": "increased signal"}, {"measurement": "dose response relationship of perfusion between 8 mg and 15 mg", "setting": "healthy volunteers [3]; formal comparison across the entire brain volume, ignoring placebo", "result": "No changes were seen"}, {"measurement": "global perfusion (whole brain)", "setting": "healthy volunteers [3]; placebo, 8 mg and 15 mg oral, CASL perfusion maps", "result": "no difference across the three conditions studied"}, {"measurement": "regional effects on absolute perfusion", "setting": "healthy volunteers [3]; placebo, 8 mg and 15 mg, threshold p=0.05 corrected across whole brain", "result": "no significant clusters where signal differed"}]}, {"smiles": "Cc1nccn1Cc1cc(-c2ccc(F)c(C(F)F)c2)cnn1", "note": "[compound of formula (I), 5-(3-difluoromethyl-4-fluoro-phenyl)-3-(2-methyl-imidazol-1-yl-methyl)-pyridazine]", "values": [{"measurement": "CSF concentration relative to plasma concentration", "setting": "[4]", "result": "largely corresponds to the free (unbound) plasma concentrations"}, {"measurement": "receptor occupancy", "setting": "[5]", "result": "greater than that, which corresponds to currently used therapeutic dosages of memantine"}]}]}
